# Biological target: T1, Human HPK1, catalytic domain (Homo sapiens, UniProt Q92918)
# T1 construct: purchased Carna
# T1 sequence (Q92918 1-346): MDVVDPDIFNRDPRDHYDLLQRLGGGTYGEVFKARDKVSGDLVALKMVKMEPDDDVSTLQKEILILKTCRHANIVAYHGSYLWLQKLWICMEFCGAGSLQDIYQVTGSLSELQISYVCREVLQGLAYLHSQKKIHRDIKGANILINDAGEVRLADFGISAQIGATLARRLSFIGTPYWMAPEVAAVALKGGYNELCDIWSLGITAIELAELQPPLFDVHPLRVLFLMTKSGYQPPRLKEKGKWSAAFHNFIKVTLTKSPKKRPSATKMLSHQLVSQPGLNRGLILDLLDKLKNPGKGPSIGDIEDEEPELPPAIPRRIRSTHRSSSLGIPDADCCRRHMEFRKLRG
# Assay: HPK1-SLP76 TR-FRET assay
# Assay type: biochemical
# Settings: 75 pM HPK1, 10 uM ATP, 10 nM SLP76, 30 min compound pre-incubation
row,Compound,IC50 [nM]
1,"CN1CCc2cc(F)c(Nc3ncc(C(N)=O)c(Nc4c(F)cccc4C(F)(F)F)n3)cc2C1 [Example 4-29, 2-[(6-fluoro-2-methyl-1,2,3,4-tetrahydroisoquinolin-7-yl)amino]-4-{[2-fluoro-6-(trifluoromethyl)phenyl]amino} pyrimidine-5-carboxamide]",0.2
2,"COc1nn(C)cc1Nc1ncc(C(N)=O)c(Nc2cccc3c2CCNC3=O)n1 [Example 7-47, 2-[(3-methoxy-1-methyl-1H-pyrazol-4-yl)amino]-4-[(1-oxo-1,2,3,4-tetrahydroisoquinolin-5-yl)amino]pyrimidine-5-carboxamide]",3.57
3,"CC(N)c1cccc(Nc2nc(Nc3cc4c(cc3F)CCN(C)C4)ncc2C(N)=O)c1 (centres unmarked) [Example 2-7, 4-{[3-(1-aminoethyl)phenyl]-amino}-2-[(6-fluoro-2-methyl-1,2,3,4-tetrahydroisoquinolin-7-yl)amino]pyrimidine-5-carboxamide]",0.24
4,"COc1cc2c(cc1Nc1ncc(C(N)=O)c(Nc3cccc4c3CCN(C(C)=O)C4)n1)CN(C)CC2 [Example 15-1, 4-[(2-acetyl-1,2,3,4-tetrahydroisoquinolin-5-yl)amino]-2-[(6-methoxy-2-methyl-1,2,3,4-tetrahydroisoquinolin-7-yl)amino]pyrimidine-5-carboxamide]",0.48
5,"COc1cc2c(cc1Nc1ncc(C(N)=O)c(Nc3ccccc3Br)n1)CN(CC(F)F)CC2 [Example 10-3, 4-((2-bromophenyl)amino)-2-((2-(2,2-difluoroethyl)-6-methoxy-1,2,3,4-tetrahydroisoquinolin-7-yl)amino)pyrimidine-5-carboxamide]",28.9
6,"COc1cc2c(cc1Nc1ncc(C(N)=O)c(Nc3c(F)cccc3OC(F)F)n1)CN(C)CC2 [Example 4-31, 4-{[2-(difluoromethoxy)-6-fluorophenyl]amino}-2-1(6-methoxy-2-methyl-1,2,3,4-tetrahydroisoquinolin-7-yl)amino|pyrimidine-5-carboxamide]",0.2
7,"COc1cc2c(cc1Nc1ncc(C(N)=O)c(Nc3ccccc3CC3(C#N)CC3)n1)CN(C)CC2 [Example 13-8, 4-({2-[(1-cyanocyclopropyl)methyl]phenyl}amino)-2-[(6-methoxy-2-methyl-1,2,3,4-tetrahydroisoquinolin-7-yl)amino]pyrimidine-5-carboxamide]",230
8,"COc1cc2c(cc1Nc1ncc(C(N)=O)c(Nc3ccc(C)cc3Cl)n1)CN(C)CC2 [Example 4-19, 4-[(2-chloro-4-methylpheny 1)amino]-2-[(6-methoxy-2-methyl-1,2,3,4-tetrahydroisoquinolin-7-yl)amino]pyrimidine-5-carboxamide]",0.38
9,"CC[C@H](C)Cc1ccccc1Nc1nc(Nc2cc3c(cc2OC)CCN(C)C3)ncc1C(N)=O [Example 13-6, 2-[(6-methoxy-2-methyl-1,2,3,4-tetrahydroisoquinolin-7-yl)amino]-4-({2-[(2S)-2-methylbutyl]phenyl}amino)pyrimidine-5-carboxamide]",597
10,"COc1cc2c(cc1Nc1ncc(C(N)=O)c(Nc3cc(C4CC4)nn3C)n1)CN(C)CC2 [Example 7-82, 4-((3-cyclopropyl-1-methyl-1H-pyrazol-5-yl)amino)-2-((6-methoxy-2-methyl-1,2,3,4-tetrahydroisoquinolin-7-yl)amino)pyrimidine-5-carboxamide]",651
11,"COc1cc2c(cc1Nc1ncc(C(N)=O)c(Nc3ccccc3Br)n1)CN(C(=O)C1CCC1(F)F)CC2 (centres unmarked) [Example 12-10, 4-[(2-bromophenyl)amino]-2-{[2-(2,2-difluorocyclobutane-1-carbonyl)-6-methoxy-1,2,3,4-tetrahydroisoquinolin-7-yl]amino}pyrimidine-5-carboxamide]",186
12,"Cc1cccc(F)c1Nc1nc(Nc2cnn(CC3CC3)c2)ncc1C(N)=O [Example 4-22, 2-{[1-(cyclopropylmethyl)-1H-pyrazol-4-yl]amino}-4-[(2-fluoro-6-methylphenyl)amino] pyrimidine-5-carboxamide]",384
13,"NC(=O)c1cnc(Nc2ccc(F)cc2F)nc1Nc1cccc2c1CCNC2=O [Example 25-17, 2-[(2,4-difluorophenyl)amino]-4-[(1-oxo-1,2,3,4-tetrahydroisoquinolin-5-yl)amino]pyrimidine-5-carboxamide]",333
14,"Cc1cccc(F)c1Nc1nc(Nc2cnn(C)c2)ncc1C(N)=O [Example 4-35, 4-[(2-fluoro-6-methylphenyl)amino]-2-[(1-methyl-1H-pyrazol-4-yl)amino]pyrimidine-5-carboxamide]",158
15,"COc1cc2c(cc1Nc1ncc(C(N)=O)c(N[C@@H](C)c3cccc(F)c3F)n1)CN(C)CC2 [Example 26-19, 4-{[(1S)-1-(2,3-difluorophenyl)ethyl]amino}-2-[(6-methoxy-2-methyl-1,2,3,4-tetrahydroisoquinolin-7-yl)amino]pyrimidine-5-carboxamide]",2.49
16,"COc1cc2c(cc1Nc1ncc(C(N)=O)c(Nc3ccccc3Br)n1)CN(CC(F)(F)F)CC2 [Example 10-2, 4-((2-bromophenyl)amino)-2-((6-methoxy-2-(2,2,2--trifluoroethyl)-1,2,3,4-tetrahydroisoquinolin-7-yl)amino)pyrimidine-5-carboxamide]",246
17,"COc1cc2c(cc1Nc1ncc(C(N)=O)c(Nc3cc(C)nn3-c3ccccc3)n1)CN(C)CC2 [Example 7-92, 2-((6-methoxy-2-methyl-1,2,3,4-tetrahydroisoquinolin-7-yl)amino)-4-((3-methyl-1-phenyl-1H-pyrazol-5-yl)amino)pyrimidine-5-carboxamide]",10.9
18,"NC(=O)c1cnc(Nc2ccc3c(c2)COCC3)nc1Nc1ccccc1Br [Example 7-107, 4-[(2-bromophenyl)amino]-2-[(3,4-dihydro-1H-2-benzopyran-7-yl)amino]pyrimidine-5-carboxamide]",55
19,"COc1cc2c(cc1Nc1ncc(C(N)=O)c(N[C@H]3c4ccccc4C[C@@H]3O)n1)CN(C)CC2 [Example 26-66, 4-{[(1S,2S)-2-hydroxy-2,3-dihydro-1H-inden-1-yl]amino}-2-[(6-methoxy-2-methyl-1,2,3,4-tetrahydroisoquinolin-7-yl)amino]pyrimidine-5-carboxamide]",193
20,"CN1CCc2cc(Cl)c(Nc3ncc(C(N)=O)c(Nc4cccc5c4CCNC5=O)n3)cc2C1 [Example 7-36, 2-[(6-chloro-2-methyl-1,2,3,4-tetrahydroisoquinolin-7-yl)amino]-4-[(1-oxo-1,2,3,4-tetrahydroisoquinolin-5-yl)amino]pyrimidine-5-carboxamide]",0.37
21,"COc1cc2c(cc1Nc1ncc(C(N)=O)c(Nc3ccccc3Br)n1)CN(C(=O)C1(C)CCC1)CC2 [Example 12-8, 4-[(2-bromophenyl)amino]-2-{[6-methoxy-2-(1-methylcyclobutane-1-carbonyl)-1,2,3,4-tetrahydroisoquinolin-7-yl]amino}pyrimidine-5-carboxamide]",344
22,"COc1cc2c(cc1Nc1ncc(C(N)=O)c(Nc3ccccc3C(O)(C(F)(F)F)C(F)(F)F)n1)CN(C)CC2 [Example 7-97, 4-{[2-(1,1,1,3,3,3-hexafluoro-2-hydroxypropan-2-yl)phenyl]amino}-2-[(6-methoxy-2-methyl-1,2,3,4-tetrahydroisoquinolin-7-yl)amino]pyrimidine-5-carboxamide]",0.23
23,"Cn1cc(Nc2ncc(C(N)=O)c(N[C@H](CO)C3CCCCC3)n2)cn1 [Example 26-49, 4-{[(1S)-1-cyclohexyl-2-hydroxyethyl]amino}-2-[(1-methyl-1H-pyrazol-4-yl)amino]pyrimidine-5-carboxamide]",78.8
24,"CC(C)N1CCn2nc(Nc3ncc(C(N)=O)c(Nc4cccc5c4CCNC5)n3)cc2CC1=O [Example 24-1, 2-((6-isopropyl-5-oxo-5,6,7,8-tetrahydro-4H-pyrazolo[1,5-d][1,4]diazepin-2-yl)amino)-4-((1,2,3,4-tetrahydroisoquinolin-5-yl)amino)pyrimidine-5-carboxamide]",5.05
25,"NC(=O)c1cnc(Nc2ccc(OC(F)F)c(Cl)c2)nc1Nc1cccc2c1CCNC2=O [Example 25-21, 2-{[3-chloro-4-(difluoromethoxy)phenyl]amino}-4-[(1-oxo-1,2,3,4-tetrahydroisoquinolin-5-yl)amino]pyrimidine-5-carboxamide]",45
26,"COc1cc2c(cc1Nc1ncc(C(N)=O)c(Nc3ccccc3Br)n1)CN(C(C)=O)CC2 [Example 12-2, 2-[(2-acetyl-6-methoxy-1,2,3,4-tetrahydroisoquinolin-7-yl)amino]-4-[(2-bromophenyl)amino]pyrimidine-5-carboxamide]",244
27,"COc1cc2c(cc1Nc1ncc(C(N)=O)c(NC3CCC(OC)CC3)n1)CN(C)CC2 (centres unmarked) [Example 26-31, 4-[(4-methoxycyclohexyl)amino]-2-[(6-methoxy-2-methyl-1,2,3,4-tetrahydroisoquinolin-7-yl)amino]pyrimidine-5-carboxamide]",5.18
28,"COc1cc2c(cc1Nc1ncc(C(N)=O)c(Nc3cccc(Cl)c3)n1)CN(C)CC2 [Example 7-25, 4-[(3-chlorophenyl)amino]-2-[(6-methoxy-2-methyl-1,2,3,4-tetrahydroisoquinolin-7-yl)amino]pyrimidine-5-carboxamide]",1.04
29,"NC(=O)c1cnc(Nc2ccc(F)cc2)nc1Nc1cccc2c1CCNC2=O [Example 25-5, 2-[(4-fluorophenyl)amino]-4-[(1-oxo-1,2,3,4-tetrahydroisoquinolin-5-yl)amino]pyrimidine-5-carboxamide]",217
